{"source": "patent US7259148B2", "about": "“Hepatoprotective activity of 2′-p-hydroxybenzoylmussaenosidic acid” (Council of Scientific & Industrial Research, priority 2003, dated 2007)", "key": {"[1]": {"tested_on": "CCl4 induced hepatic injury in rats", "test": "Hepatoprotective activity (in vivo) against CCl4 induced hepatic injury in rats", "description": "033 and 033 (2) reduced the elevated levels of serum OPT, GOT, ALP, bilirubin, TG and liver homogenate lipid peroxidation and increased the GSH level. […] The same with silymarin was: 58.44, 51:63, 52,26,57.50,41.30,62.05 & 60.15% respectively. (Table-1). [table]"}, "[2]": {"tested_on": "GalN induced hepatic injury in rats", "test": "Hepatoprotective activity (in vivo) against GalN (galactosamine) induced hepatic injury in rats", "description": "On treatment of experimental animals with galactosamine (GaIN) induced hepatic damage the hepatoprotective activity observed with 033 and 033 (2) was 59.58 & 50.75, 56.62 & 43.64, 54.28 & 50.11, 57.71 & 57.57, 57.89 & 44.76 percent in serum GPT, GOT, Bilirubin, ALP, and TG respectively and 67.51 & 38.65, 66-56 & 48.10 percent in liver homogenate lipid peroxidation (LP) and GSH respectively. The same with silymarin was 57.38, 55.40, 60.00. 53.54,46.17, 69.59, 67.18 percent respectively (Table-2). Advantages of the present invention over currently used plant based hepatoprotectives: • 1. […] Silymarin is a mixture of three constituents whose relative proportion varies from batch to batch while negundoside is a pure compound. [table]"}, "[3]": {"conditions": "rats, CCl4 1 ml/kg p.o., fed p.o. at 48 h, 24 h, 2 h before and 6 h after, 033 400 mg/kg, 033 (2) and silymarin 50 mg/kg, n=6"}, "[4]": {"conditions": "rats, GalN 300 mg/kg s.c., fed p.o. at 48 h, 24 h, 2 h before and 6 h after, 033 400 mg/kg, 033 (2) and silymarin 50 mg/kg, n=6"}}}
{"compound": "C[C@]1(O)CC[C@@H]2C(C(=O)O)=CO[C@@H](O[C@@H]3O[C@H](CO)[C@@H](O)[C@H](O)[C@H]3OC(=O)c3ccc(O)cc3)[C@@H]21", "note": "[033 (2), 2′-p-hydroxybenzoylmussaenosidic acid]", "values": [{"measurement": "Hepatoprotective activity in words", "setting": "[1]; experimentally induced hepatic damage in rodents, CCl4 as hepatotoxin", "result": "marked hepatoprotective activity"}, {"measurement": "Hepatic Glutathione (GSH, liver homogenate): mean percent hepatoprotective activity", "setting": "[1]; [3]", "result": 45.56, "unit": "%"}, {"measurement": "Hepatic Lipid peroxidation (liver homogenate): mean percent hepatoprotective activity", "setting": "[1]; [3]", "result": 45.85, "unit": "%"}, {"measurement": "Serum ALP: mean percent hepatoprotective activity", "setting": "[1]; [3]", "result": 53.95, "unit": "%"}, {"measurement": "Serum Bilirubin (mg %): mean percent hepatoprotective activity", "setting": "[1]; [3]", "result": 66.66, "unit": "%"}, {"measurement": "Serum GOT (Units): mean percent hepatoprotective activity", "setting": "[1]; [3]", "result": 58.05, "unit": "%"}, {"measurement": "Serum OPT (Units): mean percent hepatoprotective activity (reduction of elevated GPT)", "setting": "[1]; [3]", "result": 60.34, "unit": "%"}, {"measurement": "Serum Triglycerides (mg %): mean percent hepatoprotective activity", "setting": "[1]; [3]", "result": 44.19, "unit": "%"}, {"measurement": "Hepatoprotective activity in words", "setting": "[2]; experimentally induced hepatic damage with galactosamine (GalN) in rats", "result": "marked hepatoprotective activity"}, {"measurement": "Hepatic Glutathione (GSH, liver homogenate): mean percent hepatoprotective activity", "setting": "[2]; [4]", "result": 48.10, "unit": "%"}, {"measurement": "Hepatic Lipid peroxidation (LP, liver homogenate): mean percent hepatoprotective activity", "setting": "[2]; [4]", "result": 38.65, "unit": "%"}, {"measurement": "Serum ALP: mean percent hepatoprotective activity", "setting": "[2]; [4]", "result": 57.57, "unit": "%"}, {"measurement": "Serum Bilirubin (mg %): mean percent hepatoprotective activity", "setting": "[2]; [4]", "result": 50.11, "unit": "%"}, {"measurement": "Serum GOT (Units): mean percent hepatoprotective activity", "setting": "[2]; [4]", "result": 43.64, "unit": "%"}, {"measurement": "Serum GPT (Units): mean percent hepatoprotective activity (GPT)", "setting": "[2]; [4]", "result": 50.75, "unit": "%"}, {"measurement": "Serum Triglycerides (mg %): mean percent hepatoprotective activity", "setting": "[2]; [4]", "result": 44.76, "unit": "%"}]}
